By Cmax is commonly meant the peak of the concentration-time curve. For orientation: Tmax means the time from dosing to the highest level. Usually AUC(0-inf) stands for total exposure, with the tail of the curve extrapolated. A high value points to high exposure. As a reminder, the half-life is the time in which the quantity being followed falls by half. Lower therefore signals rapid decline.

Series [1] is described as follows: Mouse IF pharmacokinetic study: plasma IF by HPLC, alone or after GFJ or naringin pre-administration. Type of series: in vivo, ICR male mice. On the procedure: For the study, 7 groups with 12 animals each were intragastrically (ig) administered with 300 mg/kg of IF. Then, we obtained 1 mL of blood by cardiac puncture at 2.5, 5, 7.5, 10, 20, 30, and 60 min post-administration.
Blood samples were immediately centrifuged at 3500 rpm. Aliquots of 250 µL were stored at −70 °C until the quantification of IF plasmatic concentrations was carried out.
Besides in our research, 7 groups with 12 animals each were ig administered with naringin (250 mg/kg) to evaluate its influence on the concentration/time profiles of IF, a chemical that was ig administered 60 min later (300 mg/kg). Seven other groups were ig administered GFJ (20.8 µL/g) and 60 min later ig treated with 300 mg/kg of IF. In both assays, we obtained blood samples at 2.5, 5, 7.5, 10, 20, 30, and 60 min post-administration. With the indicated design we examined the influence of GFJ or naringin on the concentration/time profiles of IF.
For the blood treatment, after thawing, we added 250 μL of the internal standard (CF) to each sample, after which the plasma was deproteinized with methanol 1:1.5 (plasma-methanol), and centrifuged at 3500 rpm for 10 min. Subsequently, we transferred 450 μL of the supernatant to an Eppendorf tube containing 550 μL of phosphate buffer 0.01 N, pH 4.0. The solution was activated with 1 mL of methanol plus 1 mL of phosphate buffer 0.01 N, pH 4.0, and loaded to a Bond Elut-CH cartridge under reduced pressure. The cartridge was washed with 1 mL of acetonitrile plus phosphate buffer 0.01 N, pH 4.0 (10–90%) and it was eluted with 500 μL of acetonitrile plus phosphate buffer 0.025 N, pH 4.0 (40–60%). A volume of 20 μL were injected in the stabilized HPLC system.
The pharmacokinetic parameters of IF and their interaction with naringin or GFJ were calculated by non-compartmental assessment of data using the computer program WinNonlin (V4.0, Pharsight, Mountain View, CA, USA). The maximum plasma concentrations (Cmax) and their time of occurrence (Tmax) were both obtained directly from the measured data. The area under the plasma concentration-time curve, from time zero to the time of the last measurable concentration (AUC0-t) was calculated with the linear trapezoidal method. AUC0-∞ was calculated AUC0-t + Ct/λz, where Ct is the last measurable concentration and λz the constant rate of terminal elimination. The corresponding half-life elimination (t1/2) was then calculated as 0.693/λz. The results corresponding to Cmax were statistically analyzed with the ANOVA and the Student-Newman-Keuls tests. With respect to AUC0-t, Tmax, and t1/2 the analysis was made with the Kruskal-Wallis test.

Series [2] is described as follows: Stability of IF in the plasma of mouse under various storage conditions (HPLC). Type of series: in vitro ADME. As to conditions: n = 3. On the procedure:
The short-term stability was determined after the exposure of the spiked samples to room temperature for 24 h. The long-term stability was evaluated after storage of the standard spiked plasma samples at −70 °C for 30 days. The freeze/thaw cycle stability was assessed after two complete freeze/thaw cycles (−70 to 25 °C) on consecutive days. The analytes were considered to be stable in plasma when 85–115% of the initial concentrations were found.
Chromatography conditions for the study were as follows: the mobile phase consisted of acetonitrile, potassium phosphate buffer 0.025 M at pH 4.0, and triethylamine (12:88:0.025, v/v) with a final pH of 6.2. The flow-rate was 1.2 mL/min. The analytical column was operated at ambient temperature. The HPLC system consisted of a Beckman System Gold, 128 Solvent Module with ultra-violet detection at 200 nm. We used a 3.5 μm Xterra RP-8 (4.6 × 150 mm) column. Data were collected by the HPLC system and transferred to a Dell Pentium computer.

Where [3] appears, read: IF only, 300 mg/kg ig, mouse plasma, 300 mg/kg.
Where [4] appears, read: male, ICR, mouse, plasma, po, 300 mg/kg, GFJ 20.8 µL/g ig 1 h before IF 300 mg/kg ig, mouse plasma.
The mark [5] stands for this setting: male, ICR, mouse, plasma, po, 300 mg/kg, IF only, 300 mg/kg ig, mouse plasma.
The mark [6] stands for this setting: male, ICR, mouse, plasma, po, 300 mg/kg, naringin 250 mg/kg ig 1 h before IF 300 mg/kg ig, mouse plasma.

Like-named read-outs stand apart in the source and are kept apart here.

Take `O=P1(NCCCl)OCCCN1CCCl` (stereo not drawn) [IF, ifosfamide]: the Cmax was 71.35 ± 3.57^a♣ μg/mL in series [1] (GFJ 20.8 µL/g ig 1 h before IF 300 mg/kg ig, mouse plasma); 58080 ± 5010 ng/mL in series [1] (setting [3]); 71300 ng/mL in series [1] (male, ICR, mouse, plasma, po, 300 mg/kg, GFJ 20.8 µL/g ig 1 h before IF 300 mg/kg ig, mouse plasma, read-out: Cmax); 58100 ng/mL in series [1] (male, ICR, mouse, plasma, po, 300 mg/kg, IF only, 300 mg/kg ig, mouse plasma, read-out: Cmax); 64100 ± 4370 ng/mL in series [1] (male, ICR, mouse, plasma, po, 300 mg/kg, naringin 250 mg/kg ig 1 h before IF 300 mg/kg ig, mouse plasma, read-out: Cmax); 64100 ng/mL in series [1] (male, ICR, mouse, plasma, po, naringin 250 mg/kg ig 1 h before IF 300 mg/kg ig, mouse plasma, read-out: Cmax). Besides, the “AUC0−∞” value in series [1] (setting [3]) was 2110.36 ± 114.98 µg·min/mL. For the same compound, the Tmax was 10.83 ± 1.28 min in series [1] (setting [3]); 8.7 min in series [1] (male, ICR, mouse, plasma, po, 300 mg/kg, GFJ 20.8 µL/g ig 1 h before IF 300 mg/kg ig, mouse plasma, read-out: Tmax (converted)); 10.8 min in series [1] (male, ICR, mouse, plasma, po, 300 mg/kg, IF only, 300 mg/kg ig, mouse plasma, read-out: Tmax (converted)); 5 min in series [1] (male, ICR, mouse, plasma, po, 300 mg/kg, naringin 250 mg/kg ig 1 h before IF 300 mg/kg ig, mouse plasma, read-out: Tmax (converted)). Moreover, the t1/2 in series [1] (setting [3]) is on record as 23.55 ± 1.86 min. In addition, the area under the curve AUC(0-inf) in series [1] (setting [4]) was 34200 ng·h/mL; in series [1] (setting [5]), 35200 ng·h/mL; in series [1] (setting [6]), 37400 ng·h/mL. The half-life was found to be 16.5 ± 1.43 min in series [1] (setting [4]), 23.5 min in series [1] (setting [5]) and 26.8 ± 3.77 min in series [1] (setting [6]). The Concentration found was 81.34 ± 4.99 µg/mL in series [2] (freeze and thaw stability (−70 to 25 °C), two cycles, added 90 μg/mL); 108.34 ± 1.64 µg/mL in series [2] (long-term (30 days, −70 °C), added 90 μg/mL); 12.31 ± 0.68 µg/mL in series [2] (short-term (24 h, 25 °C), added 10 μg/mL); 100.11 ± 14.27 µg/mL in series [2] (short-term (24 h, 25 °C), added 90 μg/mL).

Turning to `C[C@@H]1O[C@@H](O[C@H]2[C@H](Oc3cc(O)c4c(c3)O[C@H](c3ccc(O)cc3)CC4=O)O[C@H](CO)[C@@H](O)[C@@H]2O)[C@H](O)[C@H](O)[C@H]1O` [naringin, 4′,5,5-trihdroxy-flavanone-7-rhamnoglucoside], in series [1] (naringin 250 mg/kg ig 1 h before IF 300 mg/kg ig, mouse), the “Change of half-life (t1/2) of IF with respect to IF alone” value was “no change”. For the same compound, the “Difference of AUC0−∞ of IF with respect to IF alone” value in series [1] (naringin 250 mg/kg or GFJ 20.8 µL/g ig 1 h before IF 300 mg/kg ig, mouse) is listed as “no statistical difference”.
